Assay results from patent US20250129021A1, “SMALL MOLECULE PROTEIN SYNTHESIS MODULATORS” (Interdict Bio, Inc., priority 2023, published 2025).
Read-outs that look alike come from different tables or passages of the source.

Assays:
MYC = experiment: In vitro transcription-translation (IVTT) assay, MYC reporter; format: biochemical; conditions: HeLa S3 lysate, 2 hrs at 30° C.
How it was run: (§1)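 Reporter: mCherry, P2A, then 3×FLAG-target peptide-sfGFP fusion, IRES-initiated; HeLa S3 lysate IVTT; cpd dilutions 30 μM−0.1 μM half-log in 100% DMSO (dilution-plate conc); DNA added last; 2 h, 30° C; PBS quench.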

CCND1 = experiment: In vitro transcription-translation (IVTT) assay, CCND1 reporter; format: biochemical; conditions: HeLa S3 lysate, 2 hrs at 30° C.
How it was run: as §1

MCL-1 = experiment: In vitro transcription-translation (IVTT) assay, MCL-1 reporter; format: biochemical; conditions: HeLa S3 lysate, 2 hrs at 30° C.
How it was run: as §1

ALK = experiment: In vitro transcription-translation (IVTT) assay, ALK reporter; format: biochemical; conditions: HeLa S3 lysate, sfGFP/mCherry ratio, 2 hrs at 30° C.
How it was run: as §1

KRAS G12D = experiment: In vitro transcription-translation (IVTT) assay, KRAS G12D reporter; format: biochemical; conditions: HeLa S3 lysate, sfGFP/mCherry ratio, 2 hrs at 30° C.
How it was run: as §1

HEK 293T = experiment: Cell viability (CellTiter-Fluor), HEK 293T; format: cell-based; conditions: Homo sapiens, 24-72 hrs
Method: (§2) Count and dispense 2,000-10,000 cells per well (100 μL volume) in black 96-well tissue culture microplate and let cells adhere overnight. Add compound dissolved in 100% DMSO to each well as needed and incubate cells in standard culture conditions for 24-72 hrs. Final DMSO concentration in each well should be 0.1-0.5%. At the desired time point, gently aspirate compound containing media and replace with PBS to wash. Repeat wash step for 2 total washes. Remove PBS and add 100 μL CellTiter-Fluor reagent (Promega) reagent to each well. Seal plate and incubate 1 hr at room temperature with orbital shaking. Analyze fluorescence using plate reader to quantify viable cells compared with vehicle (DMSO) control.

HPAF-II = experiment: Cell viability (CellTiter-Fluor), HPAF-II; format: cell-based; conditions: Homo sapiens, 24-72 hrs
Method: as §2

KLE = experiment: Cell viability (CellTiter-Fluor), KLE; format: cell-based; conditions: Homo sapiens, 24-72 hrs
Method: as §2

LS411N = experiment: Cell viability (CellTiter-Fluor), LS411N; format: cell-based; conditions: Homo sapiens, LS-411N, 24-72 hrs
Method: as §2

MCF7 = experiment: Cell viability (CellTiter-Fluor), MCF7; format: cell-based; conditions: Homo sapiens, 24-72 hrs
Method: as §2

NCI-H1915 = experiment: Cell viability (CellTiter-Fluor), NCI-H1915; format: cell-based; conditions: 24-72 hrs
Method: as §2

HCC38 = experiment: Cell viability (CellTiter-Fluor), HCC38; format: cell-based; conditions: Homo sapiens, 24-72 hrs
Method: as §2

HEPG2 = experiment: Cell viability (CellTiter-Fluor), HEPG2; format: cell-based; conditions: Homo sapiens, 24-72 hrs
Method: as §2

KATO-III = experiment: Cell viability (CellTiter-Fluor), KATO-III; format: cell-based; conditions: Homo sapiens, 24-72 hrs
Method: as §2

MS751 = experiment: Cell viability (CellTiter-Fluor), MS751; format: cell-based; conditions: 24-72 hrs
Method: as §2

T47D = experiment: Cell viability (CellTiter-Fluor), T47D; format: cell-based; conditions: Homo sapiens, 24-72 hrs
Method: as §2

BCL-2 = experiment: In vitro transcription-translation (IVTT) assay, BCL-2 reporter; format: biochemical; conditions: HeLa S3 lysate, sfGFP/mCherry ratio, 2 hrs at 30° C.
How it was run: as §1

CCNTB1 = experiment: In vitro transcription-translation (IVTT) assay, CCNTB1 reporter; format: biochemical; conditions: HeLa S3 lysate, 2 hrs at 30° C.
How it was run: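 IC50 fitted from the sfGFP/mCherry fluorescence ratio, normalized to no-drug control after no-DNA background subtraction. Reactions ran 2 h at 30° C in HeLa S3 cell lysate with reporter plasmid DNA and half-log compound titrations (30 μM−0.1 μM, in DMSO).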

cGAS = experiment: In vitro transcription-translation (IVTT) assay, cGAS reporter; format: biochemical; conditions: HeLa S3 lysate, 2 hrs at 30° C.
Method: (§3) Each preparation takes 8 cell pellets (4 ml packed volume each, approximately 1.0×10^9 cells per pellet). Thaw cell pellets from −80° C. on ice for 90 mins. Lay pellets horizontally on top of the ice and rotate every 30 mins to ensure even thawing. Once thawed, add 4 mL of cold lysis buffer to each pellet, and using a serological pipet, gently pipet up and down to break up clumps. Incubate resuspended cells in ice for an additional 30 mins (plunged into ice). During 30 min incubation, rinse and RNase-zap (Ambion) glass dounces (use loose pestle “A”), gently dry and place on ice until needed. Prepare RNase-free Eppendorf tubes for spinning and for batch storage. […]
(§4) In vitro transcription-translation assay setup: Each assay includes a master mix containing lysate and shared components, a 96-well plate containing compound titrations for testing, a 96-well DNA plate with reporter constructs to be tested, 96-well skirted PCR plates, and 96-well flat-bottom, black, fluorescent assay plates. […] After 2 hrs, quench the assay using 45 μL of PBS, and transfer 50 μL to a flat-bottom black microplate Quantify the sfGFP and mCherry signals from each well on each plate, taking 3 reads of each plate, and perform data analysis below.
(§5) In vitro transcription-translation assay data analysis: Each plate is read three times in channels for both sfGFP and mCherry signals. […]

STING = experiment: In vitro transcription-translation (IVTT) assay, STING reporter; format: biochemical; conditions: HeLa S3 lysate, 2 hrs at 30° C.
Method: as §3, §4, §5

JAK1 = experiment: In vitro transcription-translation (IVTT) assay, JAK1 reporter; format: biochemical; conditions: HeLa S3 lysate, 2 hrs at 30° C.
Method: as §3, §4, §5

NFKB1 = experiment: In vitro transcription-translation (IVTT) assay, NFKB1 reporter; format: biochemical; conditions: HeLa S3 lysate, 2 hrs at 30° C.
Method: as §3, §4, §5

[1] = IVTT assay, MYC reporter, normalized sfGFP/mCherry ratio, half-log dilutions 30 μM-0.1 μM

| SMILES | IC50 (MYC; sfGFP/mCherry ratio) | IC50 (CCND1; sfGFP/mCherry ratio) | IC50 (MCL-1; sfGFP/mCherry ratio) | IC50 (MCF7) | IC50 (NCI-H1915) | IC50 (HCC38) | IC50 (HEPG2) | IC50 (T47D) | IC50 (BCL-2) | IC50 (ALK) | IC50 (KRAS G12D) | IC50 (HEK 293T) | IC50 (HPAF-II) | IC50 (KLE) | IC50 (LS411N) | IC50 (KATO-III) | IC50 (MS751) | also measured |
| --- | --- | --- | --- | --- | --- | --- | --- | --- | --- | --- | --- | --- | --- | --- | --- | --- | --- | --- |
| COc1ccc(C[C@H]2NC[C@H](O)[C@H]2OC(=O)NCc2ccccc2)cc1 [V187190, (2R,3S,4S)-4-hydroxy-2-[(4-methoxyphenyl)methyl]pyrrolidin-3-yl N-benzylcarbamate; trifluoroacetic acid] | < 10000 nM | < 10000 nM | < 10000 nM | < 250 nM | < 250 nM | 250 to 1000 nM | < 250 nM | < 250 nM | < 10000 nM | < 10000 nM | < 10000 nM | < 250 nM | 250 to 1000 nM | < 250 nM | < 250 nM | < 250 nM | < 250 nM |  |
| COc1ccc(C[C@H]2NC[C@H](O)[C@H]2OC(=O)NCCc2cn[nH]c2)cc1 [V187509, (2R,3S,4S)-4-hydroxy-2-[(4-methoxyphenyl)methyl]pyrrolidin-3-yl N-[2-(1H-pyrazol-4-yl)ethyl]carbamate] | < 10000 nM | < 10000 nM | < 10000 nM | 250 to 1000 nM | 250 to 1000 nM | 250 to 1000 nM | 1000 to 4000 nM | 250 to 1000 nM | < 10000 nM |  | < 10000 nM | < 250 nM | 250 to 1000 nM | 250 to 1000 nM | 250 to 1000 nM | 250 to 1000 nM | < 250 nM |  |
| O=C(NCc1ccccc1)O[C@@H]1[C@@H](O)CN[C@@H]1Cc1ccc(-c2ccc3c(c2)CNC3)cc1 [V188347, (2R,3S,4S)-2-{[4-(2,3-dihydro-1H-isoindol-5-yl)phenyl]methyl}-4-hydroxypyrrolidin-3-yl N-benzylcarbamate] |  |  |  |  |  |  |  |  |  |  |  |  |  |  |  |  |  | IC50 (MYC; [1]): < 10000 nM; IC50 (CCND1; IVTT): < 10000 nM; IC50 (MCL-1; IVTT, read-out: MCL1 IC50): < 10000 nM; IC50 (CCNTB1): < 10000 nM; IC50 (cGAS): < 10000 nM; IC50 (STING): < 10000 nM; IC50 (JAK1): < 10000 nM; IC50 (NFKB1): < 10000 nM |
| COc1ccc(C[C@H]2NC[C@H](O)[C@H]2OC(=O)NCC2CC2)cc1 [V187189, (2R,3S,4S)-4-hydroxy-2-[(4-methoxyphenyl)methyl]pyrrolidin-3-yl N-(cyclopropylmethyl)carbamate; trifluoroacetic acid] | < 10000 nM |  | < 10000 nM | 250 to 1000 nM | 250 to 1000 nM | 250 to 1000 nM |  | 250 to 1000 nM |  | < 10000 nM | < 10000 nM | < 250 nM | 250 to 1000 nM | 250 to 1000 nM | < 250 nM | 250 to 1000 nM | 250 to 1000 nM |  |
| O=C(NCc1cccc(F)c1)O[C@@H]1[C@@H](O)CN[C@@H]1Cc1ccc(-c2cnco2)cc1 [V190545, (2R,3S,4S)-4-hydroxy-2-{[4-(1,3-oxazol-5-yl)phenyl]methyl}pyrrolidin-3-yl N-[(3-fluorophenyl)methyl]carbamate] |  |  |  |  |  |  |  |  |  |  |  |  |  |  |  |  |  | IC50 (MYC; [1]): < 10000 nM; IC50 (CCND1; IVTT): < 10000 nM; IC50 (MCL-1; IVTT, read-out: MCL1 IC50): < 10000 nM; IC50 (CCNTB1): < 10000 nM; IC50 (cGAS): < 10000 nM; IC50 (STING): < 10000 nM; IC50 (JAK1): < 10000 nM |

Continued, in another order:

| IC50 (MYC; sfGFP/mCherry ratio) | IC50 (CCND1; sfGFP/mCherry ratio) | IC50 (MCL-1; sfGFP/mCherry ratio) | IC50 (MCF7) | IC50 (NCI-H1915) | IC50 (HCC38) | IC50 (HEPG2) | IC50 (T47D) | IC50 (BCL-2) | SMILES | IC50 (ALK) | IC50 (KRAS G12D) | IC50 (HEK 293T) | IC50 (HPAF-II) | IC50 (KLE) | IC50 (LS411N) | IC50 (KATO-III) | IC50 (MS751) | also measured |
| --- | --- | --- | --- | --- | --- | --- | --- | --- | --- | --- | --- | --- | --- | --- | --- | --- | --- | --- |
| < 10000 nM | < 10000 nM | < 10000 nM | 1000 to 4000 nM | 1000 to 4000 nM | 1000 to 4000 nM | 1000 to 4000 nM | 1000 to 4000 nM |  | COc1ccc(C[C@H]2NC[C@H](O)[C@H]2OC(=O)NCc2c[nH]nn2)cc1 [V187536, (2R,3S,4S)-4-hydroxy-2-[(4-methoxyphenyl)methyl]pyrrolidin-3-yl N-(1H-1,2,3-triazol-4-ylmethyl) carbamate; trifluoroacetic acid] | < 10000 nM | < 10000 nM | 250 to 1000 nM | 1000 to 4000 nM | 1000 to 4000 nM | 1000 to 4000 nM | 1000 to 4000 nM | 250 to 1000 nM |  |
| < 10000 nM | < 10000 nM | < 10000 nM | < 250 nM | < 250 nM | 250 to 1000 nM | 1000 to 4000 nM | < 250 nM | < 10000 nM | COc1ccc(C[C@H]2NC[C@H](O)[C@H]2OC(=O)NCc2ccncc2)cc1 [V187987, (2R,3S,4S)-4-hydroxy-2-[(4-methoxyphenyl)methyl]pyrrolidin-3-yl N-(pyridin-4-ylmethyl)carbamate] |  |  | < 250 nM | 250 to 1000 nM | 250 to 1000 nM | < 250 nM | 250 to 1000 nM | 250 to 1000 nM |  |
